Among the data in BindingDB's records for doi:10.1016/j.bmcl.2009.03.008 (Roche R & D Center(China), 2009) are IC50 and EC50 values, retold here.

The target of the test is T1, Bile acid receptor (Homo sapiens, UniProt Q96RI1).
T1 sequence (Q96RI1 whole entry): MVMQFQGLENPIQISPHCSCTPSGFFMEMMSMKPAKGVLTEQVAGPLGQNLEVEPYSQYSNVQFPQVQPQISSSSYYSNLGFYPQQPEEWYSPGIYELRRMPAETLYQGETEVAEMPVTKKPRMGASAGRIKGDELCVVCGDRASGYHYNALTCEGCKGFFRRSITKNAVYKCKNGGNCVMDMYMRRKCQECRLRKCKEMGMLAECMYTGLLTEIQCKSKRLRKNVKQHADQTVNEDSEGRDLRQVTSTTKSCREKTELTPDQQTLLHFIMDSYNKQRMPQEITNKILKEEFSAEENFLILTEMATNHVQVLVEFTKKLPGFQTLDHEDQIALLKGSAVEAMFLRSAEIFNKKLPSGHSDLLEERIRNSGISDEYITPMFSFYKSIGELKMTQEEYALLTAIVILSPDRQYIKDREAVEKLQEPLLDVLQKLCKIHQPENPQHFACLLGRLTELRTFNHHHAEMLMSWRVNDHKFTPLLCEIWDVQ
Nature of the test: Scintillation Proximity Assay. The conditions noted are these: pH 8; 22 °C. The protocol: Binding affinity (IC50) was evaluated using scintillation proximity assay with radiolabeled ligand and biotinylated receptor. Because the scintillant is contained within the SPA bead, only radiolabel that is attached to the bead is detected. The receptor-ligand complex is bound to the bead through interaction between the biotinylated receptor and the streptavidin moiety located on the surface of the bead.
(In general: SPA uses beads or plates that emit light when radiolabelled molecules are held near them.)
As usually defined, the IC50 is the concentration that gives 50% inhibition. A low value points to greater potency in that assay. In turn, `Cc1cc(OCc2c(-c3c(Cl)c[n+]([O-])cc3Cl)noc2C(C)Cl)ccc1-c1ccc2c(C(=O)O)cn(C)c2c1` (centres undefined) [3-aryl isoxazole analog, 7b] returned an IC50 of 0.045 µM.
The same measure, in the same setting: as for `Cc1cc(OCc2c(-c3cc[nH]c(=O)c3Cl)noc2C(C)Cl)ccc1-c1ccc2c(C(=O)O)cn(C)c2c1` (centres undefined) [3-aryl isoxazole analog, 7c], the figure is 1.1 µM.
A word on the EC50: it is the midpoint of the concentration-response curve. Read a low EC50 as higher potency in that assay. `Cc1cc(OCc2c(-c3ccn(C)c(=O)c3Cl)noc2C(C)Cl)ccc1-c1ccc2c(C(=O)O)cn(C)c2c1` (centres undefined) [3-aryl isoxazole analog, 7d] yielded an EC50 of 7 µM and an IC50 of 7.33 µM.
On to `Cc1cc(OCc2c(-c3c(Cl)cn(C)c(=O)c3Cl)noc2C(C)Cl)ccc1-c1ccc2c(C(=O)O)cn(C)c2c1` (centres undefined) [3-aryl isoxazole analog, 7e], for which half-maximal inhibition (IC50) required 4.17 µM.
On the same count and under the same terms, the figure for `Cc1cc(OCc2c(-c3c(Cl)ccc(=O)n3C)noc2C(C)Cl)ccc1-c1ccc2c(C(=O)O)cn(C)c2c1` (centres undefined) [3-aryl isoxazole analog, 7f] is 0.88 µM.
With `COc1ccc(Cl)c(-c2noc(C(C)Cl)c2COc2ccc(-c3ccc4c(C(=O)O)cn(C)c4c3)c(C)c2)n1` (centres undefined) [3-aryl isoxazole analog, 7g], the midpoint of the response, the EC50, lay at 2 µM and the IC50 is 0.75 µM.
`Cc1cc(OCc2c(-c3[nH]c(=O)ccc3Cl)noc2C(C)Cl)ccc1-c1ccc2c(C(=O)O)cn(C)c2c1` (centres undefined) [3-aryl isoxazole analog, 7h] displayed an IC50 of 5.16 µM.
